The source made the active and inactive calls. The calls are words filed in the database; no cut-off is given here.
Legend:
[1] = target: Myosin light chain kinase 2, skeletal/cardiac muscle (Homo sapiens) (UniProt Q9H1R3); assay: Inhibition of MYLK2 (unknown origin) assessed as remaining activity at 1 uM by Kinome scan method relative to control
[2] = target: Myosin-IIIb (Homo sapiens) (UniProt Q8WXR4); assay: Inhibition of MYO3B (unknown origin) assessed as remaining activity at 1 uM by Kinome scan method relative to control
[3] = target: Serine/threonine-protein kinase PAK 3 (Homo sapiens) (UniProt O75914); assay: Inhibition of PAK3 (unknown origin) assessed as remaining activity at 1 uM by Kinome scan method relative to control
[4] = target: Tyrosine-protein kinase Mer (Homo sapiens) (UniProt Q12866); assay: Inhibition of MERTK (unknown origin) assessed as remaining activity at 1 uM by Kinome scan method relative to control
[5] = target: RAC-alpha serine/threonine-protein kinase (Homo sapiens) (UniProt P31749); assay: Inhibition of AKT1 (unknown origin) assessed as remaining activity at 1 uM by Kinome scan method relative to control
[6] = target: Bone morphogenetic protein receptor type-1A (Homo sapiens) (UniProt P36894); assay: Inhibition of BMPR1A (unknown origin) assessed as remaining activity at 1 uM by Kinome scan method relative to control
[7] = target: Bone morphogenetic protein receptor type-2 (Homo sapiens) (UniProt Q13873); assay: Inhibition of BMPR2 (unknown origin) assessed as remaining activity at 1 uM by Kinome scan method relative to control
[8] = target: Cyclin-dependent kinase 8 (Homo sapiens) (UniProt P49336); assay: Inhibition of CDK8 (unknown origin) assessed as remaining activity at 1 uM by Kinome scan method relative to control
[9] = target: Cyclin-dependent kinase-like 2 (Homo sapiens) (UniProt Q92772); assay: Inhibition of CDKL2 (unknown origin) assessed as remaining activity at 1 uM by Kinome scan method relative to control
[10] = target: Death-associated protein kinase 1 (Homo sapiens) (UniProt P53355); assay: Inhibition of DAPK1 (unknown origin) assessed as remaining activity at 1 uM by Kinome scan method relative to control
[11] = target: Ephrin type-B receptor 2 (Homo sapiens) (UniProt P29323); assay: Inhibition of EPHB2 (unknown origin) assessed as remaining activity at 1 uM by Kinome scan method relative to control
[12] = target: Receptor tyrosine-protein kinase erbB-4 (Homo sapiens) (UniProt Q15303); assay: Inhibition of ERBB4 (unknown origin) assessed as remaining activity at 1 uM by Kinome scan method relative to control
[13] = target: Fibroblast growth factor receptor 1 (Homo sapiens) (UniProt P11362); assay: Inhibition of FGFR1 (unknown origin) assessed as remaining activity at 1 uM by Kinome scan method relative to control
[14] = test system: Fibroblast growth factor receptor 3 (Homo sapiens), P22607 [G697C]; assay: Inhibition of FGFR3 G697C mutant (unknown origin) assessed as remaining activity at 1 uM by Kinome scan method relative to control
[15] = target: Tyrosine-protein kinase HCK (Homo sapiens) (UniProt P08631); assay: Inhibition of HCK (unknown origin) assessed as remaining activity at 1 uM by Kinome scan method relative to control
[16] = target: Insulin receptor-related protein (Homo sapiens) (UniProt P14616); assay: Inhibition of INSRR (unknown origin) assessed as remaining activity at 1 uM by Kinome scan method relative to control
[17] = target: Tyrosine-protein kinase JAK1 (Homo sapiens) (UniProt P23458); assay: Inhibition of JAK1 JH1 domain (unknown origin) assessed as remaining activity at 1 uM by Kinome scan method relative to control
[18] = target: Mitogen-activated protein kinase 8 (Homo sapiens) (UniProt P45983); assay: Inhibition of JNK1 (unknown origin) assessed as remaining activity at 1 uM by Kinome scan method relative to control
[19] = test system: Mast/stem cell growth factor receptor Kit (Homo sapiens), P10721 [D816V]; assay: Inhibition of KIT D816V mutant (unknown origin) assessed as remaining activity at 1 uM by Kinome scan method relative to control
[20] = target: Dual specificity mitogen-activated protein kinase kinase 7 (Homo sapiens) (UniProt O14733); assay: Inhibition of MKK7 (unknown origin) assessed as remaining activity at 1 uM by Kinome scan method relative to control
[21] = test system: Phosphatidylinositol 4,5-bisphosphate 3-kinase catalytic subunit alpha isoform (Homo sapiens), P42336 [H1047Y]; assay: Inhibition of PIK3CA H1047Y mutant (unknown origin) assessed as remaining activity at 1 uM by Kinome scan method relative to control
[22] = test system: Phosphatidylinositol 4,5-bisphosphate 3-kinase catalytic subunit alpha isoform (Homo sapiens), P42336 [I800L]; assay: Inhibition of PIK3CA I800L mutant (unknown origin) assessed as remaining activity at 1 uM by Kinome scan method relative to control
[23] = target: Phosphatidylinositol 4,5-bisphosphate 3-kinase catalytic subunit gamma isoform (Homo sapiens) (UniProt P48736); assay: Inhibition of PIK3CG (unknown origin) assessed as remaining activity at 1 uM by Kinome scan method relative to control
[24] = target: Membrane-associated tyrosine- and threonine-specific cdc2-inhibitory kinase (Homo sapiens) (UniProt Q99640); assay: Inhibition of PKMYT1 (unknown origin) assessed as remaining activity at 1 uM by Kinome scan method relative to control
[25] = target: Proto-oncogene tyrosine-protein kinase receptor Ret (Homo sapiens) (UniProt P07949); assay: Inhibition of RET (unknown origin) assessed as remaining activity at 1 uM by Kinome scan method relative to control
[26] = target: Ribosomal protein S6 kinase alpha-1 (Homo sapiens) (UniProt Q15418); assay: Inhibition of N-terminal kinase domain RSK1 (unknown origin) assessed as remaining activity at 1 uM by Kinome scan method relative to control
[27] = target: Serine/threonine-protein kinase 16 (Homo sapiens) (UniProt O75716); assay: Inhibition of STK16 (unknown origin) assessed as remaining activity at 1 uM by Kinome scan method relative to control
[28] = target: BDNF/NT-3 growth factors receptor (Homo sapiens) (UniProt Q16620); assay: Inhibition of TRKB (unknown origin) assessed as remaining activity at 1 uM by Kinome scan method relative to control
[29] = target: Mitogen-activated protein kinase kinase kinase 20 (Homo sapiens) (UniProt Q9NYL2); assay: Inhibition of ZAK (unknown origin) assessed as remaining activity at 1 uM by Kinome scan method relative to control
[30] = Down regulation of BMX protein expression in human RV-1 cells expressing wild type BMX assessed protein expression level at 2.5 uM pre incubated for 4 hrs followed by compound wash out and additon of CHX and measured after 24 hrs by immunoblot analysis (reference value: 0.98 to 1.01); type: functional
RV-1 = assay: Induction of apoptosis in human RV-1 cells at 2.5 uM incubated for 5 days in presence of […] by propidium iodide staining based flow cytometric analysis; type: functional, cell-based; details: time 5.0 day

Ephrin type-B receptor 2 (Homo sapiens), sequence (P29323 whole entry): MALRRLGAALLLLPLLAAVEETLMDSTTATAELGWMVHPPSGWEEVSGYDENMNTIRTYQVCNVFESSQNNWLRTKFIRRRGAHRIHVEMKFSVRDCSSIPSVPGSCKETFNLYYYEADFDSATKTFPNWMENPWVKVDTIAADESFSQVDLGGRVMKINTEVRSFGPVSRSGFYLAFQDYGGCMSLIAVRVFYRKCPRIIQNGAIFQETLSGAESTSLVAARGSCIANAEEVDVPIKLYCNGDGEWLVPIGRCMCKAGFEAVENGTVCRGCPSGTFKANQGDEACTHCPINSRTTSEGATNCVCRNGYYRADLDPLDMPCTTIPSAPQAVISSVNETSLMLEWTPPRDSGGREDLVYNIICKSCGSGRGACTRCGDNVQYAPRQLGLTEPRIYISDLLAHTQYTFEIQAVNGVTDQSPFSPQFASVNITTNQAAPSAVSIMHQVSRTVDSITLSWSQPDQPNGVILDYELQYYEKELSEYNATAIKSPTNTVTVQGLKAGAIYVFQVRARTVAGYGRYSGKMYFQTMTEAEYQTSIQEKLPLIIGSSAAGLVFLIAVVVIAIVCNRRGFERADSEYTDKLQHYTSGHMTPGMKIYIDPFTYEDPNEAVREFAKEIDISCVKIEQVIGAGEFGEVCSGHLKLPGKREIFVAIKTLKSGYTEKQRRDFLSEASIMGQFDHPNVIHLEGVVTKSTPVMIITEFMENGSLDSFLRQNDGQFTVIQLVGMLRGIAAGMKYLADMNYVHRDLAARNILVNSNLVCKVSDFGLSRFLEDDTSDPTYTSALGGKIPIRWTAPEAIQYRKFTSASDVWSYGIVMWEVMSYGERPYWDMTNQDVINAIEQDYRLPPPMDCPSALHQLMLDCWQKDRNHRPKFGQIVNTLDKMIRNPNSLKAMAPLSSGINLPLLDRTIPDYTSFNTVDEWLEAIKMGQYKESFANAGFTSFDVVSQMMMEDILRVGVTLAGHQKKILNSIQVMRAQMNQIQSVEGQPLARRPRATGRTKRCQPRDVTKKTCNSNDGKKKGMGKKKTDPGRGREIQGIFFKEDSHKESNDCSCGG
Serine/threonine-protein kinase 16 (Homo sapiens), sequence (O75716 whole entry): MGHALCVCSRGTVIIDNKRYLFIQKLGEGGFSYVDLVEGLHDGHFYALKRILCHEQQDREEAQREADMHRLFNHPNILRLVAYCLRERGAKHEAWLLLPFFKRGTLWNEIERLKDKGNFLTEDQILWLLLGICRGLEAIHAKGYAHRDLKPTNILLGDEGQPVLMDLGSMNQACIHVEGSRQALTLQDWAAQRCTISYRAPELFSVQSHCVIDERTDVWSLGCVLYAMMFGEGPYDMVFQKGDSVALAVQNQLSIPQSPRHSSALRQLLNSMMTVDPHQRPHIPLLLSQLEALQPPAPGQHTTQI
Dual specificity mitogen-activated protein kinase kinase 7 (Homo sapiens), sequence (O14733 whole entry, canonical isoform): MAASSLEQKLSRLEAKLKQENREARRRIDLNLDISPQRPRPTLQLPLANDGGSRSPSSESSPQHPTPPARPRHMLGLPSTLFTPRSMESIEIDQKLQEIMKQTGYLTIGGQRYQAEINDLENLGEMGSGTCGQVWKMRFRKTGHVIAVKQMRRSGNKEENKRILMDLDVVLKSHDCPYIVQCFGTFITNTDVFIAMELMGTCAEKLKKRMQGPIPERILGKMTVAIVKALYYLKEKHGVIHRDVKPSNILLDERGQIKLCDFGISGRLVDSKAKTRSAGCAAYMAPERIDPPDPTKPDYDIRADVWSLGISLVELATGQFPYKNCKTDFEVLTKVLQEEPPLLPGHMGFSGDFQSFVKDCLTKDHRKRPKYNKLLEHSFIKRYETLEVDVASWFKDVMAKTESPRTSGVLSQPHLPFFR
Myosin-IIIb (Homo sapiens), sequence (Q8WXR4 whole entry): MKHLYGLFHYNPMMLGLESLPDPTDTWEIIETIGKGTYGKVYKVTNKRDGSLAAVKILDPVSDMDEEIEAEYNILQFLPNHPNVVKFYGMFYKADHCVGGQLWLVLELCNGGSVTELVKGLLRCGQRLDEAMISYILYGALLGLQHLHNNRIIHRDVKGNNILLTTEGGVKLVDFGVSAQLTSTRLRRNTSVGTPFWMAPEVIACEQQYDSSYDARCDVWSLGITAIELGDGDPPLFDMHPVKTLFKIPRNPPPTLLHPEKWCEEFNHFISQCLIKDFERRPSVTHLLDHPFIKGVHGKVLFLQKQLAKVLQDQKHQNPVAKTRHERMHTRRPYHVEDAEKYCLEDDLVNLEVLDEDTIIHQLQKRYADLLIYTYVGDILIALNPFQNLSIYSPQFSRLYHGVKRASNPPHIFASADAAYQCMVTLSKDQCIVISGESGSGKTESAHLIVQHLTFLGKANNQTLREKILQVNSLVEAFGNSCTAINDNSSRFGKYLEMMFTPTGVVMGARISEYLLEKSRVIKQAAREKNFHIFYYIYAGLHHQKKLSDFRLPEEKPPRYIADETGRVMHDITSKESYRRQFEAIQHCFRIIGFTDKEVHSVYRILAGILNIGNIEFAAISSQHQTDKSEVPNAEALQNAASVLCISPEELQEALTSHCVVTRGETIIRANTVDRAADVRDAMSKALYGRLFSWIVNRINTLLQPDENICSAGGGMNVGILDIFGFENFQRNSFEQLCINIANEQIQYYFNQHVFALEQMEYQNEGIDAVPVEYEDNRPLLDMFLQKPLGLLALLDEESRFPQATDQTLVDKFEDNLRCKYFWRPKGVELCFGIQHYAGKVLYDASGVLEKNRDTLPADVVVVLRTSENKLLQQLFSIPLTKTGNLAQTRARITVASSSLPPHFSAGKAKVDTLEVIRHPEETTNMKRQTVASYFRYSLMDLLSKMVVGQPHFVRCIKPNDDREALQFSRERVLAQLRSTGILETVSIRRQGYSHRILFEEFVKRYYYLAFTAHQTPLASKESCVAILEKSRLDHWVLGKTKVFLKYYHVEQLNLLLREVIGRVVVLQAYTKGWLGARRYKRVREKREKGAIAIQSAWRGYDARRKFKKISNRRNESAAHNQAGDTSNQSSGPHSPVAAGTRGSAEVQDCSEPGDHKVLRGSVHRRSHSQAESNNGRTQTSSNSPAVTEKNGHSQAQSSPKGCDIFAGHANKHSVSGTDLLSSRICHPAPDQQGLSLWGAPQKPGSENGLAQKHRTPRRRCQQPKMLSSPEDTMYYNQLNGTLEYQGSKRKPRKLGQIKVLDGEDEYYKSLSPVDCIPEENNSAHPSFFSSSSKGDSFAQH
Tyrosine-protein kinase HCK (Homo sapiens), sequence (P08631 2-526 limits assumed): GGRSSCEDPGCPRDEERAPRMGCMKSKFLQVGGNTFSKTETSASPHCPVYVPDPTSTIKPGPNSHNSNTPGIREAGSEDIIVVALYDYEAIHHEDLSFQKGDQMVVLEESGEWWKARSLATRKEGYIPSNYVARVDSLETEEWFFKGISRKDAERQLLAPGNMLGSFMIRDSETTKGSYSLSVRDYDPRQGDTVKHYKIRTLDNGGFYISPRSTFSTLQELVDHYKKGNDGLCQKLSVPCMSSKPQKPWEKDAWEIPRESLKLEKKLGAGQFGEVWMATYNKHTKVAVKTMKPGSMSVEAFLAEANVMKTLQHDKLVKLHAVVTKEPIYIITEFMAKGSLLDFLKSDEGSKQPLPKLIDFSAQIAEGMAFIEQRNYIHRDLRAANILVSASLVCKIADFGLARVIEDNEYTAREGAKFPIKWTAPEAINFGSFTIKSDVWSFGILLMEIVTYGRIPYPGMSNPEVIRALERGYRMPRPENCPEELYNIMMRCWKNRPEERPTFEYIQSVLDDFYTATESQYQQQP
Bone morphogenetic protein receptor type-1A (Homo sapiens), sequence (P36894 whole entry): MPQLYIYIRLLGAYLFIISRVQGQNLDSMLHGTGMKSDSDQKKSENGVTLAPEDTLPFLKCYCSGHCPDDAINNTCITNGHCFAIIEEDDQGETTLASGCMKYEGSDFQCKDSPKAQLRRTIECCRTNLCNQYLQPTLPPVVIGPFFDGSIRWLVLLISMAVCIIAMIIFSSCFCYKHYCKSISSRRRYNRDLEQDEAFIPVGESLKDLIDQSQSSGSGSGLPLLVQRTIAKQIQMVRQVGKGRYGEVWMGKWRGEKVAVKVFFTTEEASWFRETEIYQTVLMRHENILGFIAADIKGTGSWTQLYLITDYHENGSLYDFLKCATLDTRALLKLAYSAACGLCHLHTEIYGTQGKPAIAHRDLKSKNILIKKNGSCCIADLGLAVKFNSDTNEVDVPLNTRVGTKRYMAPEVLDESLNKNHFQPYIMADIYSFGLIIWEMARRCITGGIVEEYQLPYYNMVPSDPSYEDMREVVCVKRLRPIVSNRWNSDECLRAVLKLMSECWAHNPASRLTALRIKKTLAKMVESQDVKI
Myosin light chain kinase 2, skeletal/cardiac muscle (Homo sapiens), sequence (Q9H1R3 whole entry): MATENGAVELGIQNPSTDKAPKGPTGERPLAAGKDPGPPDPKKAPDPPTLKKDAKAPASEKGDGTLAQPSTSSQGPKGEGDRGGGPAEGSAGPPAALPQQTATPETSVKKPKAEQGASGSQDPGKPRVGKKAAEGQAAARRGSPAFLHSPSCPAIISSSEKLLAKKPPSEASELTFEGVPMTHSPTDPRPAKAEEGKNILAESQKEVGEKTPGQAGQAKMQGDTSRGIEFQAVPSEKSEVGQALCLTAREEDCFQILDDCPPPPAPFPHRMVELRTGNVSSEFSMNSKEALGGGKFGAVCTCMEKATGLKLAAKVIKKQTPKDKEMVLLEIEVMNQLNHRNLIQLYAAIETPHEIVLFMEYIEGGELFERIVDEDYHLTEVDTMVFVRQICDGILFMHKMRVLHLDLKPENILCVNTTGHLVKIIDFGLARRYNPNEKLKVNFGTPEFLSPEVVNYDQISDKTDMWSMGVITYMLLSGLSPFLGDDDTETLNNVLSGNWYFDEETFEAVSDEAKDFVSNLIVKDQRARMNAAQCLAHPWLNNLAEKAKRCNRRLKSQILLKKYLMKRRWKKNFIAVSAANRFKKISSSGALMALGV

Compound `C=CC(=O)Nc1cc(-n2c(=O)ccc3cnc4ccc(-c5ccc(NS(C)(=O)=O)cc5)cc4c32)ccc1C` has an Activity [1] of 93%, an Activity [2] of 92% and an Activity [3] of 92%. It also gave an Activity [4] of 72%, an Activity [5] of 12% and an Activity [6] of 84%. For the same compound, the Activity [7] was 69%, the Activity [8] was 76% and the Activity [9] was 93%. The Activity [10] was 96%, the Activity [11] was 80% and the Activity [12] was 78%. For the same compound, the Activity [13] was 92%, the Activity [14] was 26% and the Activity [15] was 97%. The Activity [16] was 98%, the Activity [17] was 87% and the Activity [18] was 93%. For the same compound, the Activity [19] was 69%, the Activity [20] was 49% and the Activity [21] was 88%. It also gave an Activity [22] of 46%, an Activity [23] of 2.8% and an Activity [24] of 77%. For the same compound, the Activity [25] was 88%, the Activity [26] was 76% and the Activity [27] was 98%. It also gave an Activity [28] of 62%, an Activity [29] of 64% and an Activity [30] of 0.32. The Activity (RV-1) was “Active”.

Reference: ChEMBL document CHEMBL5715949, “Discovery of a selective irreversible BMX inhibitor for prostate cancer” (ACS Chem Biol, 2013)
